Among the data in publication PMC10950554 (Methods in enzymology, 2023) are Ki values, retold here.

The assay concerns the target ERK2 (Rattus norvegicus, UniProt P63086). Kind of assay: competitive fluorescence anisotropy displacement of FITC-X-Lig-D. The class given is binding. (In general: Fluorescence polarisation rises when a labelled molecule tumbles more slowly, as on binding a larger partner.)

Chain of ERK2 (P63086 2-358): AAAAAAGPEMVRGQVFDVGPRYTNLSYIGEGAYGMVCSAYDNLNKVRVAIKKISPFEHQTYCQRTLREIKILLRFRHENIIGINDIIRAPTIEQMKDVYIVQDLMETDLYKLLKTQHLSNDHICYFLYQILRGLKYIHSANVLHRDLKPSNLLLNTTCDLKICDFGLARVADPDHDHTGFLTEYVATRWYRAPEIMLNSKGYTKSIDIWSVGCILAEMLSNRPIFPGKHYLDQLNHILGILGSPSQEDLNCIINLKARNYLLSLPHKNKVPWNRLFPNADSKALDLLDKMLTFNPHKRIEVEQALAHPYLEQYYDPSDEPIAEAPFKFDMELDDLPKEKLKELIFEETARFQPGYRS

As a reminder, the Ki is a dissociation constant, usually derived from enzyme kinetics or from competition with a known ligand. The low end stands for a stronger hold on the target, the high end for a looser hold on the target. The compound `CC1(C)C2CCC(CN=C(N)CSS(=O)(=O)O)C1C2` (stereo not shown) [NSC 194308] displayed a Ki of 730 ± 260 nM.
